Converted amounts (≈) assume the structure as drawn.
Legend:
[1] = test system: IL-8 release, THP-1 cells; assay: LPS-stimulated IL-8 release in THP-1 cells (inflammation assay); type: cell-based, human; conditions: for potency at inhibiting the LPS inflammatory response (in words): IL-8, dose range 0-30 ug/ml; for MIC (inhibiting the LPS IL-8 response): API dose range 0-30 ug/ml
[2] = Solubility of APIs in ethanol & water vehicles; type: physicochemical; conditions: for Solubility in water and ethanol (in words): comparison among the screened APIs
[3] = Franz cell porcine skin permeation, ToF-SIMS tape strip analysis; type: in vitro ADME, pig; conditions: for evidence of permeation (key findings): porcine skin, ToF-SIMS imaging and tape stripping, with or without Nanocin
[4] = test system: TNF-α release, THP-1 cells; assay: LPS-stimulated TNF-α release in THP-1 cells (inflammation assay); type: cell-based, human; conditions: final concentration 1 or 0.1 ug/ml; normalised with cell count
Protocol: The release of cytokines (looking particularly at those associated with inflammation-TNF-α, IL-8, IL-1α) after stimulation with lipopolysaccharide (LPS) is a valid model system to test compounds for potential anti-inflammatory effects (Reference 1)
To standardise conditions for the assay, a LPS dose (0-1 ug/ml) was investigated on TNF-α, IL-8 and IL-1α response, over a time period from 2, 4 and 24 hours.
A 1:1 mg/ml (Nanocin:API) was initially formulated in 20% ethanol and the stock formulation was then diluted down with serum free media and tested at a final concentration of 1 or 0.1 ug/ml.

[5] = Franz cell porcine skin permeation, ToF-SIMS cross sectional analysis; type: in vitro ADME, pig; conditions: cross sections; 1 mg/ml Diclofenac; partial embedding
Protocol: The experimental work involved applying various formulations to the skin in a Franz cell, leaving it for 24 hours as an infinite dose. Initial formulations were 1 mg/ml Nanocin and 300 ug/ml API in 20% ethanol. The same concentration of formulation were also used using FITC labelled Nanocin. Methods of detection was by: Franz Cell Method 1: Full OCT Embedding Method and Cryo-Sectioning; Franz Cell Method 2: Partial OCT Embedding and Cryo-Sectioning; Franz Cell Method 3: Partial OCT Embedding and Tape Stripping; and Time-of-Flight Secondary Ion Mass Spectrometry (ToF-SIMS) Fluorescence Microscopy.
Porcine ears used for the Franz cell analysis were sourced from a local abattoir. The age of the pig slaughtered were between 4-6 months old. The ears were cleaned with deionised water and the outside skin was carefully removed from the underlying cartilage. The excised skin was then stored at −20° C. until use. All ears used for the permeation experiment were within 6 months after procurement.
Prior to setting up the Franz cells, the skin was defrosted by leaving it at room temperature and pressure. Excess hairs on the porcine skin were not trimmed in this instance (to promote capacity to identify follicular delivery). […]

Row | Solubility in water and ethanol (in words) [2] | Structure (SMILES) | potency at inhibiting the LPS inflammatory response (in words) ([1]; THP-1 cells) | MIC (inhibiting the LPS IL-8 response) ([1]; THP-1 cells, 24 h) [µg/mL] | evidence of permeation (key findings) [3] | further results
1 | – | C=CC[C@@H]1/C=C(\C)C[C@H](C)C[C@H](OC)[C@H]2O[C@@](O)(C(=O)C(=O)N3CCCC[C@H]3C(=O)O[C@H](/C(C)=C/[C@@H]3CC[C@@H](O)[C@H](OC)C3)[C@H](C)[C@@H](O)CC1=O)[C@H](C)C[C@@H]2OC [Tacrolimus] | more potent than Ibuprofen | 0.3 (≈ 0.373 µM) | no evidence | anti-inflammatory effect, IL-8 normalised with cell count ([1]; 30 ug/ml API, 10 ug/ml LPS, 24 h): more effective anti-inflammatory; Solubility ([2]; 10 mg/ml API solution, 10% ethanol): x(better)
2 | better solubility | CC(C)Cc1ccc(C(C)C(=O)O)cc1 (stereo not drawn) [Ibuprofen] | – | – | no evidence | effect on reducing the IL-8 release ([1]; 30 ug/ml API, LPS 24 h, THP-1 cells): very little effect
3 | insolubility | Cc1ccc(-c2cc(C(F)(F)F)nn2-c2ccc(S(N)(=O)=O)cc2)cc1 [Celecoxib] | – | – | – | –
4 | – | CO[C@H]1C[C@@H]2CC[C@@H](C)[C@@](O)(O2)C(=O)C(=O)N2CCCC[C@H]2C(=O)O[C@H]([C@H](C)C[C@@H]2CC[C@@H](O)[C@H](OC)C2)CC(=O)[C@H](C)/C=C(\C)[C@@H](O)[C@@H](OC)C(=O)[C@H](C)C[C@H](C)/C=C/C=C/C=C/1C [Rapamycin] | – | 1 (≈ 1.09 µM) | no evidence | –

Row | Structure (SMILES) | Solubility in water and ethanol (in words) [2] | potency at inhibiting the LPS inflammatory response (in words) ([1]; THP-1 cells) | MIC (inhibiting the LPS IL-8 response) ([1]; THP-1 cells, 24 h) [µg/mL] | evidence of permeation (key findings) [3] | further results
5 | O=C(O)Cc1ccccc1Nc1c(Cl)cccc1Cl [Diclofenac] | most soluble | more potent than Ibuprofen | 1 (≈ 3.38 µM) | – | LPS-stimulated IL-8 response ([1]; final concentration 1 or 0.1 ug/ml, normalised with cell count): reduced; LPS-stimulated TNF-α response [4]: reduced; intensity of Cl—, NaCl2- and Na2Cl3- markers in the stratum corneum [5]: slight elevation; presence of NaCl2— and Na2Cl3— ions (diclofenac markers) ([3]; tape strips 1-3, 1 mg/ml Diclofenac): none

Source: patent US20210259981A1, “COMPOSITIONS AND METHODS OF TREATMENT” (Blueberry Therapeutics Limited, priority 2018, published 2021)
